Common to all, as to type: functional, cell-based
Assay [1] deals with HL-60. In words: Cytotoxicity against human HL60 cells by MTT assay. In general terms: Tetrazolium assays rely on reduction of a dye to a coloured formazan, in cell work by metabolically active cells.
Assay [2] relates to K562. The experiment in a line: Cytotoxicity against human K562 cells by MTT assay.
In assay [3] the test system is LNCaP. In words: Cytotoxicity against human LNCAP cells by MTT assay.
The subject of assay [4] is HL-60. The experiment in a line: Induction of apoptosis in human HL60 cells assessed as DNA fragmentation at 30 uM after 18 hrs by agarose-gel electrophoresis.

What is called IC50 is the concentration at which inhibition is half-maximal. Read a high IC50 as a need for much substance.

SMILES strings stand for the structures. Active and inactive are the calls of the source. The calls are words filed in the database; no cut-off is given here.

Consider `C=C[C@@H]1C=C(C)[C@H]2[C@@H]3[C@H](Oc4ccc(cc4)C[C@@]4(O)C[C@H](C(=O)N4)C(=O)[C@@H]13)[C@@H]1[C@@H](C)C[C@@H](C)C[C@]12C` [PYRROSPIRONE D], for which the IC50 in assay [1] came to 6.92 µM; in assay [2], 8.64 µM; in assay [3] it was 11.7 µM.

For the compound `CC1=C[C@H]2[C@@H]3C(=O)[C@]4(C[C@@H]2O)C[C@](O)(Cc2ccc(cc2)O[C@H]2[C@H]3[C@@H]1[C@]1(C)C[C@H](C)C[C@H](C)[C@@H]21)NC4=O` [PYRROSPIRONE B], the result in assay [4] was Active. Moreover, the results for the IC50 in assay [1], in assay [2] and in assay [3] were 7.44 µM, 9.27 µM and 20.2 µM, respectively.

Regarding `CC1=C[C@H]2[C@@H]3C(=O)[C@]4(C[C@H]2O)C[C@](O)(Cc2ccc(cc2)O[C@H]2[C@H]3[C@@H]1[C@]1(C)C[C@H](C)C[C@H](C)[C@@H]21)NC4=O` [PYRROSPIRONE A], the outcome in assay [4] was Active. Further, the 50% inhibitory concentration (IC50) in assay [1] worked out at 14.9 µM; in assay [2], 9.96 µM; in assay [3], 18 µM.

As for `C=C[C@@H]1C=C(C)[C@H]2[C@@H]3[C@H](Oc4ccc(cc4)C[C@@]4(O)C=C(C(=O)N4)C(=O)[C@@H]13)[C@@H]1[C@@H](C)C[C@@H](C)C[C@]12C` [PYRROSPIRONE C], the values for the IC50 in assay [1], in assay [2] and in assay [3] were 0.12 µM, 0.45 µM and 0.48 µM, respectively.
